“Also recorded” adds a separate entry of the source.
Tests used:
[1] = tested on: BALB/c splenocytes; assay: Standard mixed lymphocyte reaction (MLR); type: cell-based, mice
Method: (§1) FLT3 inhibition decreases DC-based proliferation of T cells. For these experiments, DCs were generated as above from BALBc mice. The cells were left untreated or were treated with CEP701 and then plated with C57BL/6 splenocytes at the ratios shown. After 3 days, ^3H was added, and the proliferation determined. […] In FIG. 2b, BALB/c splenocytes were substituted for DCs, in order to test the inhibition of CEP701 on a standard mixed lymphocyte reaction (MLR). […] To determine whether T cell stimulatory response would be inhibited as a result of exposure to AG1296, two different T cell proliferative assays were conducted. […] In this standard mixed lymphocyte reaction, equal numbers of stimulator and responder cells (10^6 of each) were mixed in a 96 well plate, incubated for 4 days, pulsed with 3H-thymidine, and proliferation was determined by analyzing incorporation of tritium. DC-stimulated proliferation was also determined by incubating BM derived DCs (day 8, as above) at a ratio of 1:10 with responder allogeneic splenocytes, in the presence (10 μm) or absence of AG1296.

[2] = tested on: Dendritic cells (CD11c+ cells); assay: Apoptosis, survival of mature bone-marrow DCs treated with FLT3 inhibitors (FACS, Annexin V); type: cell-based, mice; conditions: for apoptosis in DCs (Annexin V binding): 24 hours; for survival and stimulation of the DCs: mature DCs, dose-response analysis, in the presence of GM-CSF+/−FL
Method: The survival and function of the DCs was investigated when exposed to FLT3 inhibitors. Mature DCs were incubated in a dose-response analysis to CEP 701, 5214 and AG 1296 in the presence of GM-CSF+/−FL.
Bone marrow (BM) was flushed from the extremities of mice with PBS, red blood cells (RBCs) were lysed in hypotonic buffer, and after washing the cells were plated at 2×10^6 cells/ml in GM-CSF (1000 U/ml) or GM+FL (100 ng/ml) containing medium. On days 2, 4, and 6, non-adherent cells were removed and adherent cells were washed prior to the addition of fresh medium. On day 8, non-adherent mature DCs were harvested, and replated in the absence or presence of CEP-701 at 5 or 50 nM. After 24 hours, cells were then stained for FACS analysis. CD11c+ cells were assessed for MHC class II expression and Annexin V binding (FIG. 1A).
After washing, the cells were plated at 2×10^6 cells/ml in GM-CSF (1000 U/ml)+FL (100 ng/ml) containing medium. On days 2, 4, and 6, non-adherent cells were removed and adherent cells were washed prior to the addition of fresh medium. On day 8, non-adherent mature DCs were harvested, and replated in the absence or presence of AG 1296. After 24 hours, cells were stained for FACS analysis. Dendritic cells (CD11c+ cells) were assessed for CD86 expression and Annexin V binding (FIG. 1B). […] For DCs to activate T cells, they present antigen bound to MHC molecules and express co-stimulatory proteins on their surfaces.

[3] = tested on: co-stimulatory molecules B7.2 (CD 86) and B7-DC; assay: Expression of co-stimulatory molecules B7.2 (CD 86) and B7-DC on DCs; type: cell-based, Murine; conditions: AG1296 at 0, 1, or 10 μM
Method: FIG. 6 depicts the treatment of DCs with AG1296 at either 0, 1, or 10 μM and then analyzed for the expression of co-stimulatory molecules B7.2 (CD 86) and B7-DC.
(§2) To investigate the role of FL/FLT3 stimulation in regulating costimulatory protein expression by DC, […] or GM-CSF plus FL, were analyzed by Northern blotting for expression of B7-DC, a member of the B7 family of co-stimulatory molecules. […] The inhibition of FLT3 signaling led to a down-regulation of B7-DC as well as B7.2 (CD 86) in these DCs (FIG. 6).

[4] = tested on: T cells; assay: DC-stimulated proliferation of T cells (3H incorporation); type: cell-based, mice
Method: as §1

[5] = Established experimental autoimmune encephalomyelitis (EAE), MOG 35-55; type: in vivo, C57BL/6 mice; conditions: 20 mg/kg, started within one day of initial symptoms, scored daily, blinded
Method: C57BL/6 mice were injected with 100 micrograms of the Established Experimental Allergic Encephalitomyelitis (EAE) inducing peptide MOG 35-55 in CFA with 400 micrograms of Mycobacterium tuberculosis. On the day of immunization and 48 hours later, mice were boosted with pertussis toxin, following standard protocols. […] Scores were as follows: 0 (no symptoms), 0.5 (partial loss of tail tonicity), 1 (full loss of tail tonicity), 2 (affected gait), 2.5 (partial hind limb paralysis) 3 (full hind limb paralysis) 4 (front and hind paralysis) 5 (moribund). 10 mice/group were treated in the study shown.

[6] = tested on: transgenic T cells that are specific for HA; assay: In vivo autoreactive T cell expansion in HA transgenic (137) mice given 6.5 T cells; conditions: 137 mice treated 3 days prior to and 5 days after T cell transfer
[7] = tested on: T cells; assay: Direct stimulation of T cells on anti-CD3 plates with anti-CD28 antibody; type: cell-based; conditions: anti-CD3 coated plates, 2 days, 3H
Method: T cells were then stimulated with anti-CD28 antibody. After 2 days, 3H was added, and the proliferation determined.

[8] = tested on: axons; assay: Degenerating axonal fibers in medial dorsal column of MOG-immunized mice; type: in vivo; conditions: cervical level 5, 210 days post disease induction, versus vehicle
Source text: In reference to FIG. 10, intact brain and spinal cords were removed from mice that were immunized with MOG peptide, and either treated with the vehicle control or CEP-701 after symptom onset. Following treatment and scoring, the mice were kept for an additional 2 months, then sacrificed and the CNS prepared for evaluation by preservation in formalin. Thin plastic sections ([…]) were generated from cervical level 5, followed by staining in Toluidine blue and axons were visualized. Total axon numbers and actively degenerating fibers in a predefined area of the medial dorsal column were enumerated by an experienced examiner in a blinded fashion. Plots show the number of degenerating axonal fibers in the defined field area for the sections of CEP-701 treated mice compared to vehicle control mice at 210 days post disease induction.

[9] = tested on: CD11c and NK cell populations; assay: Immune cell populations in spleens and lymph nodes of treated mice (FACS); type: in vivo, BALB/c mice; conditions: 20 mg/kg twice a day for 5 days
Method: BALB/c mice were treated with 20 mg/kg of CEP701 or vehicle twice a day for 5 days, and then were analyzed for their immune populations. Spleens and lymph nodes were harvested and collagenase digested to release DCs from the stroma. Cells were then washed and analyzed by FACS for the presence of T (CD3+/DX5−), NK (CD3−,DX5+), B (B220+, CD11c−) or DCs (CD11c+).

[10] = tested on: B7-DC; assay: Northern blot for hB7-DC in human bone marrow cells treated with cytokines; type: cell-based; conditions: FL added to GM-CSF
Method: as §2

COc1cc2ncc(-c3ccccc3)nc2cc1OC [AG1296]
mixed lymphocyte reaction proliferation ([1]; allogeneic spleen cells, 10^6 each, 4 days, 3H-thymidine, AG1296 10 μm): inhibition
apoptosis in DCs (Annexin V binding) ([2]; AG 1296 at 0, 1, and 10 μM, DCs generated in GM-CSF + FL): confirmed; also recorded: induced apoptosis in DCs in a dose-dependent fashion
apoptosis in DCs (Annexin V binding) ([2]; AG 1296 at 0, 1, and 10 μM, DCs generated in GM-CSF + FL, listed as AG 1296): induction of apoptosis in a significant fraction of the DCs
survival and stimulation of the DCs [2]: decrease in survival and stimulation
expression of co-stimulatory molecule B7-DC on DCs [3]: down regulated
expression of co-stimulatory molecule B7.2 (CD 86) on DCs [3]: down regulated
T cell proliferation induced by DCs ([4]; BM derived DCs 1:10 with allogeneic splenocytes, AG1296 10 μm): decrease in T cell proliferation; also recorded: inhibited

C[C@]12O[C@H](C[C@]1(O)CO)n1c3ccccc3c3c4c(c5c6ccccc6n2c5c31)CNC4=O [CEP-701]
mixed lymphocyte reaction (MLR) response ([1]; BALB/c splenocytes substituted for DCs, CEP701): inhibited
apoptosis in DCs (Annexin V binding) ([2]; CEP-701 at 5 or 50 nM, DCs generated in GM-CSF alone or GM-CSF and FL): induced apoptosis; also recorded: induction of apoptosis in a significant fraction of the DCs
survival and stimulation of the DCs [2]: decrease in survival and stimulation
DC-based proliferation of T cells ([4]; BALBc DCs treated with CEP701, plated with C57BL/6 splenocytes, 3 days, 3H): robust effect on decreasing proliferation of T cells
EAE clinical score (0-5) [5]: lower scores
autoreactive T cell expansion, as measured by thy 1.1 ([6]; listed as CEP 701): decreases an in vivo autoreactive immune response
autoreactive T cell expansion, as measured by thy 1.1 ([6]; listed as CEP701): decrease in the autoreactive T cell expansion
proliferation of directly stimulated T cells [7]: does not inhibit their proliferation
number of degenerating axonal fibers (neurodegeneration) [8]: decrease in neurodegeneration
B (B220+, CD11c−) cell population [9]: no significant change
DC (CD11c+) population [9]: decreases
NK (CD3−,DX5+) population [9]: decreases
T (CD3+/DX5−) cell population [9]: no significant change

CC(C)OCc1ccc2c(c1)c1c3c(c4c(c1n2CCCO)Cc1ccccc1-4)C(=O)NC3 [CEP-5214]
apoptosis in DCs ([2]; CEP-5214, data not shown): confirmed
survival and stimulation of the DCs [2]: decrease in survival and stimulation

B1: FL: FLT3 Ligand (FL), ligand that stimulates the FLT3 receptor (protein, UniProt P49771 27-235, looked up)
Fms-related tyrosine kinase 3 …: TQDCSFQHSPISSDFAVKIRELSDYLLQDYPVTVASNLQDEELCGGLWRLVLAQRWMERLKTVAGSKMQGLLERVNTEIHFVTKCAFQPPPSCLRFVQTNISRLLQETSEQLVALKPWITRQNFSRCLELQCQPDSSTLPPPWSPRPLEATAPTAPQPPLLLLLLLPVGLLLLAAAWCLHWQRTRRRTPRPGEQVPPVPSPQDLLLVEH
B7-DC expression (Northern blot) [10]: greatly up-regulates

Source: patent US20090054358A1, “Flt3 inhibitors for immune suppression” (THE JOHN HOPKINS UNIVERSITY, priority 2004, published 2009)
